Test results: ChEMBL document CHEMBL1125966, “Synthesis and pharmacological evaluation of combined thromboxane receptor antagonist/synthase inhibitors: pyridine-containing sulphonamido acids” (Bioorg Med Chem Lett, 1991)

Key:
Thromboxane-A synthase = molecular target: T1, Thromboxane-A synthase (Homo sapiens, UniProt P24557); assay: In vitro inhibition of collagen-induced thromboxane A2 production in human whole blood; assay type: functional, tissue-based
T1 sequence (P24557 whole entry): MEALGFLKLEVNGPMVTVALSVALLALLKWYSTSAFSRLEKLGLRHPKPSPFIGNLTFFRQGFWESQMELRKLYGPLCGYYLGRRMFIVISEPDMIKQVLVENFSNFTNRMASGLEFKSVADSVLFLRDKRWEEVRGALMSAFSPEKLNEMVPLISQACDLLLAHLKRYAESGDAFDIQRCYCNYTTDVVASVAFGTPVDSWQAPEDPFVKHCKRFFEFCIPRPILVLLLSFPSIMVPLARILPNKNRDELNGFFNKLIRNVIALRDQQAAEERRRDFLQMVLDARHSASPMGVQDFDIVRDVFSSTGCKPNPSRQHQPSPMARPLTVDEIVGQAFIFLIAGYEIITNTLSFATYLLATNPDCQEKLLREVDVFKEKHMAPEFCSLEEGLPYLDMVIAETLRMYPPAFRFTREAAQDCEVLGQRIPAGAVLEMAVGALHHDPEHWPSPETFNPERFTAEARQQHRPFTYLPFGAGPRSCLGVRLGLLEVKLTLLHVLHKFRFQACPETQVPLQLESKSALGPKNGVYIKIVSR

Thromboxane A2 receptor [1] = molecular target: T2, Thromboxane A2 receptor (Rattus norvegicus, UniProt P34978); assay: In vitro thromboxane A2 receptor antagonism through inhibition of U-46619 induced contraction of rat isolated thoracic aortic strip; assay type: functional; conditions: read-out: pA2 (converted)
T2 sequence (P34978 whole entry): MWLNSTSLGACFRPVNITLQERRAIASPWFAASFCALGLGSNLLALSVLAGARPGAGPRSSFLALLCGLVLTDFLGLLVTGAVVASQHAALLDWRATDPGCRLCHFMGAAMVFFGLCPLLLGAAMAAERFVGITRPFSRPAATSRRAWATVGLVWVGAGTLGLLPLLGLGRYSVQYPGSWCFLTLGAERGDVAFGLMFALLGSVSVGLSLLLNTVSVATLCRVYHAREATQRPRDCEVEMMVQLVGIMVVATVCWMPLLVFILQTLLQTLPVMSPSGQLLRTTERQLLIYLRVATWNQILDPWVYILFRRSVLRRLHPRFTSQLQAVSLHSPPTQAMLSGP

Thromboxane A2 receptor [2] = molecular target: T3, Thromboxane A2 receptor (Homo sapiens, UniProt P21731); assay: In vitro thromboxane A2 receptor antagonism through inhibition of U-46619 induced platelet aggregation in human whole blood; assay type: functional, tissue-based; conditions: read-out: pA2 (converted)
T3 sequence (P21731 whole entry): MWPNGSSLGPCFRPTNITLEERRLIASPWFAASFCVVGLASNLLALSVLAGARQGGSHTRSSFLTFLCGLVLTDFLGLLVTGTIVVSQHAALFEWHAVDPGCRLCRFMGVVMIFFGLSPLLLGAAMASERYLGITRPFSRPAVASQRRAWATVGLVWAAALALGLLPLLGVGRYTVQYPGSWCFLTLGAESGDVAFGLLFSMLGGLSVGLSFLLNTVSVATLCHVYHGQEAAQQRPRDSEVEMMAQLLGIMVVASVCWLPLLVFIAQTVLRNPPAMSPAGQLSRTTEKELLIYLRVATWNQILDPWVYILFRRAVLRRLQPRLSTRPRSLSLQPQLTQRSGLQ

[3] = The half life period was determined; assay type: ADME
Canis familiaris [4] = assay: Tested ex vivo for the percent inhibition of serum TXA2 production with collagen-induced platelet aggregation in anasthetised dog after administration at a dose of 10 ug/kg/min; assay type: functional; conditions: Canis lupus familiaris
Canis familiaris [5] = assay: Tested ex vivo for the percent inhibition of serum TXA2 production with collagen-induced platelet aggregation in conscious dog at dosage of 10 mg/kg for 12 to 24 h; assay type: functional; conditions: Canis lupus familiaris

IC50 (Thromboxane-A synthase) | Kb (Thromboxane A2 receptor [1]) | Kb (Thromboxane A2 receptor [2]) | half-life [3] | SMILES | inhibition in vivo at 10 µg/kg/min (Canis familiaris [4]) | inhibition in vivo at 10 mg/kg (Canis familiaris [5])
50.1 nM | 15.8 nM | 794 nM | – | O=C(O)CCC/C=C(/c1cccnc1)c1cccc(CCNS(=O)(=O)c2ccccc2)c1 | – | –
200 nM | 200 nM | 2000 nM | < 30 min | O=C(O)CCCCO/N=C(/c1cccnc1)c1cccc(CCNS(=O)(=O)c2ccc(I)cc2)c1 | – | –
> 1000 nM | 1.58 nM | 200 nM | – | O=C(O)CO/N=C(/c1cccnc1)c1cccc(CCNS(=O)(=O)c2ccc(I)cc2)c1 | – | –
63.1 nM | 63.1 nM | 316 nM | – | O=C(O)CCC/C=C(/c1cccnc1)c1cccc(CCNS(=O)(=O)c2ccc(Cl)c(Cl)c2)c1 | – | –
200 nM | 2 nM | 316 nM | < 30 min | CC(C)(CNS(=O)(=O)c1ccc(I)cc1)c1cccc(/C(=N\OCCC(=O)O)c2cccnc2)c1 | – | –
501 nM | 0.631 nM | 100 nM | < 30 min | O=C(O)CCO/N=C(/c1cccnc1)c1cccc(CCNS(=O)(=O)c2ccc(I)cc2)c1 | – | –
20 nM | 10 nM | 794 nM | – | O=C(O)CCCC/C=C(/c1cccnc1)c1cccc(CCNS(=O)(=O)c2ccc(I)cc2)c1 | – | –
31.6 nM | 0.631 nM | 200 nM | – | CC(C)(CNS(=O)(=O)c1ccc(I)cc1)c1cccc(/C(=C\CCCC(=O)O)c2cccnc2)c1 | > 98% | > 90%
39.8 nM | 3.98 nM | 631 nM | – | O=C(O)CCC/C=C(/c1cccnc1)c1cccc(CCNS(=O)(=O)c2ccc([N+](=O)[O-])cc2)c1 | – | –
200 nM | 12.6 nM | 1580 nM | < 30 min | O=C(O)CCCO/N=C(/c1cccnc1)c1cccc(CCNS(=O)(=O)c2ccc(I)cc2)c1 | – | –
50.1 nM | 200 nM | 1000 nM | – | O=C(O)CCC/C=C(/c1cccnc1)c1cccc(CCNS(=O)(=O)c2ccccc2[N+](=O)[O-])c1 | – | –
79.4 nM | 31.6 nM | 7940 nM | – | O=C(O)CC/C=C(/c1cccnc1)c1cccc(CCNS(=O)(=O)c2ccccc2)c1 | – | –
31.6 nM | 1 nM | 631 nM | – | O=C(O)CCC/C=C(/c1cccnc1)c1cccc(CCNS(=O)(=O)c2ccc(I)cc2)c1 | > 98% | –
31.6 nM | 25.1 nM | 794 nM | – | O=C(O)CCC/C=C(/c1cccnc1)c1cccc(CCNS(=O)(=O)c2ccc(F)cc2)c1 | – | –
50.1 nM | 126 nM | 1000 nM | – | O=C(O)CCC/C=C(/c1cccnc1)c1cccc(CCCNS(=O)(=O)c2ccccc2)c1 | – | –
– | – | – | < 30 min | O=C(O)CCCCO/N=C(/c1cccnc1)c1cccc(C(F)(F)F)c1 [RIDOGREL] | – | –
